Columns and labels:
Format in all cases: in vivo
Alopecurus myosuroides [1] = assay: Pre-emergence herbicidal effect; details: 80 g/ha, visual score after 3 weeks vs untreated controls
Excerpt: (§1) Seeds of monocotyledonous and dicotyledonous weed plants and crop plants are laid out in sandy loam soil in wood-fiber pots and covered with soil. The compounds of the invention, formulated in the form of wettable powders (WP) or as emulsion concentrates (EC), are then applied to the surface of the covering soil as aqueous suspension or emulsion at a water application rate equating to 600 to 800 L/ha with addition of 0.2% wetting agent. After the treatment, the pots are placed in a greenhouse and kept under good growth conditions for the trial plants. The damage to the test plants is scored visually after a test period of 3 weeks by comparison with untreated controls (herbicidal activity in percent (%): 100% activity=the plants have died, 0% activity=like control plants).

Avena fatua = assay: Pre-emergence herbicidal effect; details: 80 g/ha, visual score after 3 weeks vs untreated controls
Excerpt: as §1

Digitaria sanguinalis [2] = assay: Pre-emergence herbicidal effect; details: 80 g/ha, visual score after 3 weeks vs untreated controls
Excerpt: as §1

Echinochloa crus-galli [3] = assay: Pre-emergence herbicidal effect; details: 80 g/ha, visual score after 3 weeks vs untreated controls
Excerpt: as §1

Lolium rigidum [4] = assay: Pre-emergence herbicidal effect; details: 80 g/ha, visual score after 3 weeks vs untreated controls
Excerpt: as §1

Setaria viridis [5] = assay: Pre-emergence herbicidal effect; details: 80 g/ha, visual score after 3 weeks vs untreated controls
Excerpt: as §1

Alopecurus myosuroides [6] = assay: Post-emergence herbicidal effect; details: 80 g/ha, post-emergence at one-leaf stage, visual score after about 3 weeks
Experimental: (§2) Seeds of monocotyledonous and dicotyledonous weed and crop plants are laid out in sandyloam soil in wood-fiber pots, covered with soil and cultivated in a greenhouse under good growth conditions. 2 to 3 weeks after sowing, the test plants are treated at the one-leaf stage. The compounds of the invention, formulated in the form of wettable powders (WP) or as emulsion concentrates (EC), are then sprayed onto the green parts of the plants as aqueous suspension or emulsion at a water application rate equating to 600 to 800 l/ha with addition of 0.2% wetting agent. After the test plants have been left to stand in the greenhouse under optimal growth conditions for about 3 weeks, the action of the preparations is assessed visually in comparison to untreated controls (herbicidal action in percent (%): 100% activity=the plants have died, 0% activity=like control plants).

Digitaria sanguinalis [7] = assay: Post-emergence herbicidal effect; details: 80 g/ha, post-emergence at one-leaf stage, visual score after about 3 weeks
Experimental: as §2

Echinochloa crus-galli [8] = assay: Post-emergence herbicidal effect; details: 80 g/ha, post-emergence at one-leaf stage, visual score after about 3 weeks
Experimental: as §2

Hordeum murinum = assay: Post-emergence herbicidal effect; details: 80 g/ha, post-emergence at one-leaf stage, visual score after about 3 weeks
Experimental: as §2

Lolium rigidum [9] = assay: Post-emergence herbicidal effect; details: 80 g/ha, post-emergence at one-leaf stage, visual score after about 3 weeks
Experimental: as §2

Setaria viridis [10] = assay: Post-emergence herbicidal effect; details: 80 g/ha, post-emergence at one-leaf stage, visual score after about 3 weeks
Experimental: as §2

Row | SMILES | Pre-emergence action ALOMY (herbicidal activity in percent) (Alopecurus myosuroides [1]) [%] | Pre-emergence action AVEFA (herbicidal activity in percent) (Avena fatua) [%] | Pre-emergence action DIGSA (herbicidal activity in percent) (Digitaria sanguinalis [2]) [%] | Pre-emergence action ECHCG (herbicidal activity in percent) (Echinochloa crus-galli [3]) [%] | Pre-emergence action LOLRI (herbicidal activity in percent) (Lolium rigidum [4]) [%] | Pre-emergence action SETVI (herbicidal activity in percent) (Setaria viridis [5]) [%] | Post-emergence action against ALOMY (herbicidal action in percent) (Alopecurus myosuroides [6]) [%] | Post-emergence action against DIGSA (herbicidal action in percent) (Digitaria sanguinalis [7]) [%] | Post-emergence action against ECHCG (herbicidal action in percent) (Echinochloa crus-galli [8]) [%] | Post-emergence action against HORMU (herbicidal action in percent) (Hordeum murinum) [%] | Post-emergence action against LOLRI (herbicidal action in percent) (Lolium rigidum [9]) [%] | Post-emergence action against SETVI (herbicidal action in percent) (Setaria viridis [10]) [%]
1 | CC#Cc1cc(Br)c(C2=C(O)C3(CCC4(CC3)OCCO4)NC2=O)c(OC)c1 [Example 1.2.03] | 100 | 100 | 100 | 100 | 100 | 100 | 90 | 100 | 100 | 100 | 100 | 100
2 | C=CCOC1CCC2(CC1)NC(=O)C(c1c(Br)cc(C#CC)cc1OC)=C2O (stereo not drawn) [Example 1.3.01] | 100 | 100 | 100 | 90 | 100 | 100 | 100 | 100 | 100 | 100 | 100 | 100
3 | C=CCOC1CCC2(CC1)NC(=O)C(c1c(Br)cc(C#CC)cc1OC)=C2OC(=O)C(C)C (stereo not drawn) [Example 1.3.04] | 90 | 90 | 100 | 100 | 100 | 100 | 90 | 100 | 100 | 100 | 100 | 100

— US20220056040A1, “NOVEL 3-(2-BROMO-4-ALKYNYL-6-ALKOXYPHENYL)-3-PYRROLIN-2-ONES AND THEIR USE AS HERBICIDES” (Bayer Aktiengesellschaft, priority 2019, published 2022)
